Reference: the OligoGym collection
Oligonucleotides are written 5' to 3', each unit as a sugar letter and its base; * is a phosphorothioate linkage, no mark a phosphodiester; rarer units and linkages stand in square brackets, end groups in braces. Plain capitals give the bases only. d = 2'-deoxy (DNA); r = 2'-OH (RNA)

molecular target: UBE2E3; assay: reporter assay of Huesken 2005; details: siRNA
Note: test concentration or dose not given here.

Substance	normalised inhibition (eCFP-eYFP dual reporter)
sense rArUrCrArCrUrGrCrArArCrArUrCrArArCrArGdTdT / antisense rCrUrGrUrUrGrArUrGrUrUrGrCrArGrUrGrArUdAdG	69.7%
sense rArUrUrCrArGrArArGrGrArGrCrUrArGrCrUrGdTdT / antisense rCrArGrCrUrArGrCrUrCrCrUrUrCrUrGrArArUdTdC	42.3%
sense rArUrUrUrArArGrCrCrArCrCrArArArGrGrUrUdTdT / antisense rArArCrCrUrUrUrGrGrUrGrGrCrUrUrArArArUdGdG	64.2%
sense rArUrUrUrGrUrUrCrCrCrUrUrUrUrGrArCrArGdTdT / antisense rCrUrGrUrCrArArArArGrGrGrArArCrArArArUdAdG	47.8%
sense rCrArArArGrGrUrUrUrUrGrCrUrGrUrCrUrArUdTdT / antisense rArUrArGrArCrArGrCrArArArArCrCrUrUrUrGdAdA	92.4%
sense rCrArArCrCrCrUrGrCrGrGrArUrCrCrUrCrUrGdTdT / antisense rCrArGrArGrGrArUrCrCrGrCrArGrGrGrUrUrGdCdA	56.3%
sense rCrArCrCrArArArCrUrCrUrCrUrArGrCrArArAdTdT / antisense rUrUrUrGrCrUrArGrArGrArGrUrUrUrGrGrUrGdTdT	84.2%
sense rCrArCrCrArArArGrGrUrUrArCrUrUrUrCrCrGdTdT / antisense rCrGrGrArArArGrUrArArCrCrUrUrUrGrGrUrGdGdC	58.8%
sense rCrArCrUrCrArGrUrArUrUrUrGrArCrCrArArCdTdT / antisense rGrUrUrGrGrUrCrArArArUrArCrUrGrArGrUrGdGdC	87.1%
sense rCrArGrUrGrCrUrGrGrGrCrCrUrArArArGrGrAdTdT / antisense rUrCrCrUrUrUrArGrGrCrCrCrArGrCrArCrUrGdCdA	73.2%
sense rCrArGrUrGrGrCrArGrUrUrCrArGrArUrGrCrGdTdT / antisense rCrGrCrArUrCrUrGrArArCrUrGrCrCrArCrUrGdCdT	53%
sense rCrCrArArArCrUrCrUrCrUrArGrCrArArArArCdTdT / antisense rGrUrUrUrUrGrCrUrArGrArGrArGrUrUrUrGrGdTdG	69.8%
sense rCrCrArArCrArGrArGrCrArGrArArCrArCrGrAdTdT / antisense rUrCrGrUrGrUrUrCrUrGrCrUrCrUrGrUrUrGrGdTdC	88.8%
sense rCrCrUrCrCrUrCrCrUrArArUrUrGrCrArGrUrGdTdT / antisense rCrArCrUrGrCrArArUrUrArGrGrArGrGrArGrGdAdT	62.6%
sense rCrCrUrUrArArArGrArCrArArCrUrGrGrArGrUdTdT / antisense rArCrUrCrCrArGrUrUrGrUrCrUrUrUrArArGrGdAdT	58.9%
sense rCrCrUrUrGrArUrCrCrUrCrCrUrCrCrUrArArUdTdT / antisense rArUrUrArGrGrArGrGrArGrGrArUrCrArArGrGdGdT	81.6%
sense rCrGrArCrArGrGrArUrArGrCrCrArGrArCrArGdTdT / antisense rCrUrGrUrCrUrGrGrCrUrArUrCrCrUrGrUrCrGdTdG	78%
sense rCrGrCrArCrCrArGrArArUrCrUrArUrCrArCrUdTdT / antisense rArGrUrGrArUrArGrArUrUrCrUrGrGrUrGrCrGdGdA	73.4%
sense rCrUrCrCrUrArArUrUrGrCrArGrUrGrCrUrGrGdTdT / antisense rCrCrArGrCrArCrUrGrCrArArUrUrArGrGrArGdGdA	51.1%

Substance	normalised inhibition (eCFP-eYFP dual reporter)
sense rCrUrCrCrUrCrCrUrArArUrUrGrCrArGrUrGrCdTdT / antisense rGrCrArCrUrGrCrArArUrUrArGrGrArGrGrArGdGdA	34.3%
sense rCrUrGrGrArGrUrCrCrCrGrCrUrUrUrGrArCrUdTdT / antisense rArGrUrCrArArArGrCrGrGrGrArCrUrCrCrArGdTdT	72%
sense rCrUrGrUrArUrArUrGrArArGrGrUrGrGrUrGrUdTdT / antisense rArCrArCrCrArCrCrUrUrCrArUrArUrArCrArGdAdA	36.8%
sense rCrUrUrGrGrUrCrCrArCrCrGrGrGrUrUrCrUrGdTdT / antisense rCrArGrArArCrCrCrGrGrUrGrGrArCrCrArArGdTdA	68.4%
sense rGrArArGrGrArGrCrUrArGrCrUrGrArArArUrAdTdT / antisense rUrArUrUrUrCrArGrCrUrArGrCrUrCrCrUrUrCdTdG	88.5%
sense rGrArCrCrArGrCrGrArGrArCrCrCrArGrCrCrGdTdT / antisense rCrGrGrCrUrGrGrGrUrCrUrCrGrCrUrGrGrUrCdCdG	54.7%
sense rGrArUrArUrCrArCrArUrUrUrUrCrArUrCrArGdTdT / antisense rCrUrGrArUrGrArArArArUrGrUrGrArUrArUrCdCdA	57.6%
sense rGrCrArArCrArUrCrArArCrArGrUrCrArGrGrGdTdT / antisense rCrCrCrUrGrArCrUrGrUrUrGrArUrGrUrUrGrCdAdG	66.1%
sense rGrCrCrArCrUrCrArGrUrArUrUrUrGrArCrCrAdTdT / antisense rUrGrGrUrCrArArArUrArCrUrGrArGrUrGrGrCdTdA	90.9%
sense rGrCrGrArGrArCrCrCrArGrCrCrGrCrUrCrCrAdTdT / antisense rUrGrGrArGrCrGrGrCrUrGrGrGrUrCrUrCrGrCdTdG	69.2%
sense rGrCrUrGrGrGrCrCrUrArArArGrGrArGrArUrAdTdT / antisense rUrArUrCrUrCrCrUrUrUrArGrGrCrCrCrArGrCdAdC	67.2%
sense rGrGrArGrArUrArArCrArUrUrUrArUrGrArArUdTdT / antisense rArUrUrCrArUrArArArUrGrUrUrArUrCrUrCrCdTdT	75.8%
sense rGrGrArGrCrUrArGrCrUrGrArArArUrArArCrCdTdT / antisense rGrGrUrUrArUrUrUrCrArGrCrUrArGrCrUrCrCdTdT	80.5%
sense rGrGrArGrUrCrArUrCrUrGrUrCrUrGrGrArCrAdTdT / antisense rUrGrUrCrCrArGrArCrArGrArUrGrArCrUrCrCdCdT	75.6%
sense rGrGrArGrUrCrCrCrGrCrUrUrUrGrArCrUrArUdTdT / antisense rArUrArGrUrCrArArArGrCrGrGrGrArCrUrCrCdAdG	69.2%
sense rGrGrArUrCrCrUrCrUrGrGrUrUrGrGrArArGrCdTdT / antisense rGrCrUrUrCrCrArArCrCrArGrArGrGrArUrCrCdGdC	59.8%
sense rGrGrUrUrArCrUrUrUrCrCrGrCrArCrCrArGrAdTdT / antisense rUrCrUrGrGrUrGrCrGrGrArArArGrUrArArCrCdTdT	91.4%
sense rGrGrUrUrUrUrGrCrUrGrUrCrUrArUrUrUrGrUdTdT / antisense rArCrArArArUrArGrArCrArGrCrArArArArCrCdTdT	94.8%
